Data reported in paper PMC9820303, “^αN-Acetyl β-Endorphin Is an Endogenous Ligand of σ1Rs That Regulates Mu-Opioid Receptor Signaling by Exchanging G Proteins for σ2Rs in σ1R Oligomers” (International Journal of Molecular Sciences, 2022).
Structures can show the parent of a compound that is named as a salt. No end group written: not given here.

Key:
[1] = system: CD1 mice (wild-type and σ1R−/−); test: Supraspinal analgesia, warm water (52 °C) tail-flick test; type: in vivo, mouse; conditions: for analgesia of the substance in σ1R−/− mice compared with wild-type: icv: morphine 3 nmol, β-End 1–31 0.5 nmol, DAMGO 0.1 nmol, DPDPE 10 nmol, WIN55,212-2 15 nmol, 8 mice per strain
Procedure: Upper panel: the withdrawal thresholds of the contralateral and ipsilateral paws were measured before (indicated as 0) and up to 14 days after surgery. […] Middle panel: 0.3 and 3 nmol of ^αN-acetyl β-End 1–31 were administered icv 7 days after surgery, and the nociceptive threshold was evaluated at the indicated postinjection intervals (in minutes). For every time interval studied in min or days, * indicates a significant difference from the group that received saline instead of ^αN-acetyl β-End 1–31; ϕ significant difference from the effect of 3 nmol ^αN-acetyl β-End 1–31. […] All data are presented as the mean ± SD of six mice. ANOVA followed by the Holm–Sidak multiple comparisons test, p < 0.05, 1-β > 0.80. […] Upper panel: wild-type mice were injected icv with saline, ^αN-acetyl β-End 1–31 (1 nmol/mouse) or the combination of the σ1R agonist PPCC (3 nmol/mouse) plus ^αN-acetyl β-End 1–31 20 min before morphine and β-End 1–31. Analgesia was evaluated by the warm water (52 °C) tail-flick test at the interval postinjection corresponding to their peak effect, 30 min. Lower panel: σ1R^−/− mice received 1 nmol ^αN-acetyl β-End 1–31, 20 min before morphine and β-End 1–31 and analgesia was evaluated as described above. Eight mice were used per strain and treatment. * Significant difference with respect to the group treated with morphine or β-End 1–31 alone. ANOVA followed by the Holm–Sidak multiple comparisons test, p < 0.05, 1-β > 0.80.
Figure 3 Effect of physiological β-End 1–31 derivatives on morphine and β-End 1–31 analgesia. […] (A) The mice were icv-injected with 25 nmol of β-End 1–26, β-End 1–27 and ^αN-acetylated derivatives 20 min before icv 0.5 nmol β-End 1–31. Analgesia was determined at the indicated postinjection intervals. (B) CD1 wild-type and σ1R^−/− mice were administered C terminal peptide sequences 27–31, 28–31 and 30–31 of β-End 1–31 through an icv injection 20 min before 0.5 nmol of the whole β-End 1–31 and morphine (10 nmols) were injected icv. […] (C) A series of exogenous σ1R ligands (3 nmol) were icv-injected 20 min before 0.5 nmol β-End 1–31 was administered via icv in wild-type mice. The σ1R antagonist S1RA was also icv-injected before β-End 1–31 was administered icv in σ1R^−/− mice. (D) The effects of several doses of S1RA on morphine analgesia were studied in wild-type and σ1R^−/− mice. […] ANOVA followed by the Holm–Sidak multiple comparisons test, p < 0.05, 1-β > 0.80.
(A) The effect of σ1R deletion on opioid- and cannabinoid-induced analgesia. Analgesic compounds were icv-injected into wild-type and σ1R^−/− mice, and analgesia was evaluated 30 min after morphine (3 nmol) and β-End 1–31 (0.5 nmol), 15 min after DAMGO (0.1 nmol) and DPDPE (10 nmol) and 10 min after WIN55,212-2 (15 nmol). The bars are the mean ± SD of eight mice per strain and treatment. * Significant difference with respect to the effect of the analgesic substance in the wild-type group. ANOVA followed by the Holm–Sidak multiple comparisons test, p < 0.05, 1-β > 0.80. (B) Coprecipitation of G proteins with MORs. Solubilized mouse brain cortical membranes enriched in synaptosomes (SBM) from CD1 wild-type (WT) and σ1R^−/− mice were solubilized with sonication in the presence of 1% NP-40. Non-soluble debris was eliminated, and the samples were then incubated overnight at 4 °C with affinity-purified biotinylated IgGs that were raised against extracellular regions of the MOR. Protein complexes that were immunoprecipitated with streptavidin agarose were extensively washed and then resolved by SDS-PAGE.

σ1R-σ2R = σ1R-σ2R (Mus musculus, UniProt O55242); test: In vitro σ1R-σ2R association of recombinant proteins (HaloLink-σ2R, Western blot); type: biochemical, murine; set-up: The coding region of the full-length murine σ1R (AF004927); GST (N, cleaved yes); made in house; host or cells: E. coli BL21 (KRX); conditions: increasing concentrations; 30 min RT; vs control without ligand
Procedure: (§1) Figure 7 Effect of β-End 1–31, ^αN-acetyl β-End 1–31 and their N-terminal derivatives on σ1R-σ2R, σ1R-NR1 C1 and σ1R-BiP associations. Amino acid sequence of β-End 1–31 showing derivatives 1–26 and 1–27. (A) HaloLink-attached σ2Rs were incubated for 30 min at RT in the presence of σ1Rs (100 nM) in 300 μL of 50 mM Tris-HCl (pH 7.4), 0.2% CHAPS, and 2.5 mM CaCl2. After removing the unbound σ1R proteins, the effects of increasing the peptide concentrations on σ1R-σ2R associations were studied. At the end of the incubation, protein complexes bound to HaloLink-σ2R were obtained by centrifugation, washed three times, solubilized in 2× Laemmli buffer containing β-mercaptoethanol, resolved by SDS-PAGE, and analyzed by Western blotting (for more details, see Section 4). This protocol was also used to assess the effect of ligands on (B) σ1R-NR1 C1 and (C) σ1R-BiP associations. Data were compared to that of the control, which was obtained in the absence of ligands. (A–C) Data are the mean ± SD, n = 3. (D) The β-End 1–31 structural models were predicted by Novafold (DNASTAR Lasergene protein v.17, Inc., Madison, WI, USA). Ribbon model: The 3D structure, charge distribution and hydrophobicity map of β-End 1–31 are shown. Positive charges are shown in red and negative charges in blue. Polar surfaces are shown in yellow, and nonpolar surfaces are shown in orange. Linear model: the opioid (1–5) and flexible region (8–11) sequences are shown in green and orange, respectively, and the amphiphilic helix (15–25) is shown in pink.
(§2) The recombinant σ1R (100 nM) was incubated either with Haloprotein (negative control) or together with the immobilized σ2R, NR1 C0-C1-C2 or BiP proteins in 300 µL of a buffer containing 50 mM Tris-HCl (pH 7.4) and 0.2% CHAPS in the presence of 2.5 mM CaCl2 for 30 min at RT. After removal of the unbound σ1R, the agarose-attached complexes were incubated for 30 min with rotation at RT in the presence of increasing concentrations of the ligands in a final reaction volume of 300 µL [50 mM Tris-HCl (pH 7.4), 2.5 mM CaCl2 and 0.2% CHAPS]. Ligands were usually dissolved in aqueous solutions; however, when an organic solvent such as DMSO was required to incorporate, e.g., pregnenolone sulfate, the solvent remained below 1% in the assay buffer. Agarose pellets containing the bound proteins were obtained by centrifugation, washed and resuspended thrice in the presence of 2.5 mM CaCl2, solubilized in 2× Laemmli buffer plus β-mercaptoethanol, and analyzed by Western blotting.
(§3) Because all the assays were performed with recombinant proteins, the immune signals provided a single band of the expected size, which was used for the subsequent densitometry analysis. Accordingly, no other regions of the blots provided information and were routinely excluded from the analysis.
Figure S7. Effect of σ1R agonist/antagonist ligands on σ1R-σ2R heterodimers. (A-C) Agarose (Θ)- attached σ2Rs captured recombinant σ1Rs. After removing unbound σ1R proteins, the Θ-σ2R.σ1R complexes were incubated with a ﬁxed concentration of a selected L1 ligand (indicated in brackets) in the absence and presence of increasing concentrations of competing σ1R ligands as indicated. The σ1Rs that remained attached to the Θ-σ2Rs were evaluated by Western blotting. * Signiﬁcant differences with respect to the control group that was incubated without L1 ligands. ANOVA followed by the Holm-Sidak multiple comparisons test, p < 0.05. For details, see Methods and Figure 6A. Representative blots are […]
Figure S8. Effect of the physiological and nonphysiological sequences of β-End 1-31 and classical σ1R ligands on BiP-σ1R, σ2R-σ1R and NR1 C1-σ1R associations . Agarose-BiP was loaded with σ1Rs, and after the unbound σ1Rs were removed, the agarose-BiP-σ1R complexes were incubated in the absence (control) and presence of increasing concentrations of (A) β-End 1-31 C-terminal physiological derivatives and (B) classical σ1R ligands. C) Agarose-σ2R loaded with σ1Rs was incubated in the […]

σ1R-NR1 C1 = target: T1, σ1R-NR1 C1 (Mus musculus, UniProt O55242); test: In vitro σ1R-NR1 C1 association of recombinant proteins (Western blot); type: biochemical, murine; conditions: increasing concentrations; 30 min RT; vs control without ligand
T1 construct: The coding region of the full-length murine σ1R (AF004927); GST (N, cleaved yes); made in house; host or cells: E. coli BL21 (KRX)
Procedure: as §1, §2, §3
Figure S8. Effect of the physiological and nonphysiological sequences of β-End 1-31 and classical σ1R ligands on BiP-σ1R, σ2R-σ1R and NR1 C1-σ1R associations . […]
D) Agarose-NR1 C1 loaded with […]
σ1Rs were incubated in the absence (control) and with nonphysiological derivatives of β-End 1-31. A-D) The σ1Rs that remained attached to the agarose complexes were evaluated by Western blotting. The […]
(§4) (1 picture or pasted object on this page, not shown here)
Figure S9. Effect of σ1R agonist/antagonist ligands on σ1R-NR1 C1 associations. Θ-Agarose-NR1 C1 was loaded with recombinant σ1Rs. After unbound σ1R proteins were removed, the complexes were incubated with (A) 1 nM β-End 1-31, (B) αN-acetyl β-End 1-31, (C-D) β-End 28-31 in the absence (black columns) and presence of (A) 10 nM or (B-D) increasing concentrations of competing σ1R ligands as indicated. The σ1Rs that remained attached to the Θ-σ2Rs were evaluated by Western blotting. The […]
Prog is progesterone; PregSulfate is pregnenolone sulfate; Nac is […]

σ1R-BiP = target: T2, σ1R-BiP (Mus musculus, UniProt O55242); test: In vitro σ1R-BiP association of recombinant proteins (Western blot); type: biochemical
T2 construct: The coding region of the full-length murine σ1R (AF004927); GST (N, cleaved yes); host or cells: E. coli BL21 (KRX) for σ1R
Procedure: as §1, §2, §3
Figure S8. Effect of the physiological and nonphysiological sequences of β-End 1-31 and classical σ1R ligands on BiP-σ1R, σ2R-σ1R and NR1 C1-σ1R associations . Agarose-BiP was loaded with σ1Rs, and after the unbound σ1Rs were removed, the agarose-BiP-σ1R complexes were incubated in the absence (control) and presence of increasing concentrations of (A) β-End 1-31 C-terminal physiological derivatives and (B) classical σ1R ligands. C) Agarose-σ2R loaded with σ1Rs was incubated in the absence (control) and with nonphysiological derivatives of β-End 1-31. D) Agarose-NR1 C1 loaded with σ1Rs were incubated in the absence (control) and with nonphysiological derivatives of β-End 1-31. A-D) The σ1Rs that remained attached to the agarose complexes were evaluated by Western blotting. The […]
as §4
Figure S10. Effect of σ1R agonist/antagonist ligands on σ1R-BiP associations. Agarose-attached BiP proteins were incubated for 30 min in the presence of recombinant σ1R (100 nM) proteins in 300 μL of 50 mM Tris-HCl (pH 7.4), 0.2% CHAPS, and 2.5 mM CaCl2. After the unbound σ1R proteins were […]

σ1R-σ2R, sequence (O55242 whole entry): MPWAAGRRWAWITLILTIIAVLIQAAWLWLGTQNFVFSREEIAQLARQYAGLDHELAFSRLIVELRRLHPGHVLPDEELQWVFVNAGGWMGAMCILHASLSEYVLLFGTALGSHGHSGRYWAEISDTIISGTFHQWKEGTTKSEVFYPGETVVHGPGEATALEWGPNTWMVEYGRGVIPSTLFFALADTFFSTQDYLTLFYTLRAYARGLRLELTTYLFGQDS
T1 sequence (O55242 whole entry): as above
T2 sequence (O55242 whole entry): as above

Compound | analgesia of the substance in σ1R−/− mice compared with wild-type [1] | effect on σ1R-σ2R association (σ1R-σ2R) | effect on σ1R-NR1 C1 association (σ1R-NR1 C1) | other results
Cc1c(C(=O)c2cccc3ccccc23)c2cccc3c2n1[C@H](CN1CCOCC1)CO3 [WIN55,212–2] | did not significantly change |  |  | 
CN1CC[C@]23c4c5ccc(O)c4O[C@H]2[C@@H](O)C=C[C@H]3[C@H]1C5 [morphine, morphine sulfate] | increased analgesic response |  |  | 
([D-Ala2, N-MePhe4, Gly-ol]-enkephalin [DAMGO] | augmented |  |  | 
([D-Pen2,D-Pen5]enkephalin) [DPDPE] | did not significantly change |  |  | 
GGFL [leu-enkephalin 2–5 metabolite] |  | disrupted this association |  | 
GGFM [met-enkephalin 2–5 aminopeptidase product] |  | promoted the sigma receptor heterodimer |  | 
YGGFL [leu-enkephalin, leucine-enkephalin 1–5] |  | disrupted this association | dissociated σ1R-NR1 C1 complexes | 
YGGFM [met-enkephalin, methionine-enkephalin, β-End N-terminal derivative 1–5] |  | promoted the sigma receptor heterodimer | enhancement | 
^αN-acetyl leu-enkephalin: chimeric ^αN-acetylated leu-enkephalin |  | protective |  | 
^αN-acetyl β-End 1–27: ^αN-acetylated form of β-End 1–27 (Ac-YGGFMTSEKSQTPLVTLFKNAIIKNAY; UniProt P01189 237-263, looked up, fragment) |  |  |  | activity at σ1R-BiP against agonists / β-End 1–31 (σ1R-BiP; 1 nM β-End 1–31 with increasing competitor (Figure S10)): antagonist activity; effect on σ1R-BiP association (σ1R-BiP; increasing concentrations, 30 min RT, vs control without ligand): promoted σ1R-BiP complexes
β-End 1–4: fragment 1–4 of β-End 1–31 (YGGF; Beta-endorphin; UniProt P01189 237-240, looked up, fragment) |  |  | enhancement | 
β-End 1–16: nonphysiological fragment of β-End 1–31 (YGGFMTSEKSQTPLVT; Beta-endorphin; UniProt P01189 237-252, looked up, fragment) |  |  |  | effect on β-End 1–31 analgesia, nonphysiological fragments ([1]; 1 nmol icv 20 min before 0.5 nmol β-End 1–31 icv, 6 mice): practically did not alter β-End 1–31 analgesia
β-End 2–31: β-End 1–31 without Y1 (GGFMTSEKSQTPLVTLFKNAIIKNAYKKGE; Beta-endorphin; UniProt P01189 238-267, looked up, fragment) |  | diminished σ1R-σ2R associations | promoting the σ1R-NR1 C1 association | 
